Measured values from ChEMBL document CHEMBL6087456 (J Med Chem, 2025).
Values after ≈ are worked out from the molar mass of the structure shown. Active and inactive are the calls of the source. The calls are words filed in the database; no cut-off is given here.

Experiments:
[1] = molecular target: Dihydroorotate dehydrogenase (quinone), mitochondrial (Homo sapiens, UniProt Q02127); assay: Inhibition of C-terminal His6-tagged recombinant human DHODH (29 to 395 residues) N-terminally truncated soluble domain extracted from Escherichia coli phage resistant BL21-DE3 using CoQD/DHA/DCIP as substrates
Sequence of Dihydroorotate dehydrogenase (quinone), mitochondrial (Q02127 whole entry, the tested form may be a part): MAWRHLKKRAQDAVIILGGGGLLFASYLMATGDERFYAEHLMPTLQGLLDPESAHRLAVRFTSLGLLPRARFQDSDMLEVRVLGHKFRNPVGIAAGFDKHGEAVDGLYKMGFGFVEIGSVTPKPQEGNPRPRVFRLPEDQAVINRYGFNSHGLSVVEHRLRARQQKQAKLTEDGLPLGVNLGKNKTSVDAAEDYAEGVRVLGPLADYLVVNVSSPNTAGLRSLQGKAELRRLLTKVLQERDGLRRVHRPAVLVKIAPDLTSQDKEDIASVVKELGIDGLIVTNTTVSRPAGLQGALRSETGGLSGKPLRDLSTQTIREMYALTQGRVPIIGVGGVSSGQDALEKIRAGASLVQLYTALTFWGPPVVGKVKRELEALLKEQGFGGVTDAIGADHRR

Plasmodium falciparum [2] = assay: Antiparasitic activity against asexual blood stage Plasmodium falciparum 3D7 incubated for 72 hrs by SYBR Green assay; format: functional, organism-based; details: 3D7, 72 h
[3] = Kinetic solubility of compound at pH 6.5 measured after 30 mins by nephelometry; format: physicochemical; details: buffer, pH 6.5, read-out: Kinetic_solubility
[4] = Metabolic stability in human liver microsomes assessed as intrinsic clearance at 0.5 uM incubated for 60 mins in presence of NADPH by tandem quadrupole-Time of Flight MS; format: ADME, Microsome; details: 1 h
[5] = Cytotoxicity against human HepG2 cells by Cell Titer Glo assay; format: toxicity, cell-based
[6] = Cytotoxicity against human Jurkat cells by Cell Titer Glo assay; format: toxicity, cell-based
Plasmodium falciparum [7] = assay: Antiparasitic activity against Plasmodium falciparum 3D7 assessed as lag time before killing at 10 times EC50 pretreated for 120 hrs followed by compound removal and replacement of media without compound measured after 28 days by cell killing assay; format: functional
Plasmodium falciparum [8] = assay: Antiparasitic activity against Plasmodium falciparum 3D7 assessed as parasitic reduction ratio at 10 times EC50 pretreated for 120 hrs followed by compound removal and replacement of media without compound measured after 28 days by cell killing assay; format: functional
[9] = Plasma protein binding in human measured for 6 hrs by rapid equilibrium dialysis; format: ADME, cell-free
[10] = Plasma protein binding in rat measured for 6 hrs by rapid equilibrium dialysis; format: ADME, cell-free
Albumin = Albumin (Homo sapiens, UniProt P02768); assay: Protein binding to albumin (unknown origin) in ALBUMAX medium; format: ADME; details: read-out: PB (converted)
Sequence of Albumin (P02768 whole entry): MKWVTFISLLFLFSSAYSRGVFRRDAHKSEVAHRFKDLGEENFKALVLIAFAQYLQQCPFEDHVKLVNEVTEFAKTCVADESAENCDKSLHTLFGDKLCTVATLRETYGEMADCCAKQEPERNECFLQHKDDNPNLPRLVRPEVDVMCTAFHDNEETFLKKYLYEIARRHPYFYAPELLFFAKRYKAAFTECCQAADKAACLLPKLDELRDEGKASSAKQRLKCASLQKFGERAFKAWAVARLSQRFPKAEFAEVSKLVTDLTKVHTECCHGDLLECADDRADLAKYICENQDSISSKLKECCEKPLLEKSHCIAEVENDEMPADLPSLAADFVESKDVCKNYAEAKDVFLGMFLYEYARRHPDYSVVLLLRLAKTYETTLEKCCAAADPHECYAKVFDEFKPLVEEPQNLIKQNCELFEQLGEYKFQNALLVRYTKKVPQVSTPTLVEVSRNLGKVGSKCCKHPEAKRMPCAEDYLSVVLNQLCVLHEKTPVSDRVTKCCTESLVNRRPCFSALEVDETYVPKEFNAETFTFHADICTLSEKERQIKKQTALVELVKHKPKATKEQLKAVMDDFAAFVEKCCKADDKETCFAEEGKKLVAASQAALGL

[11] = Protein binding in human hepatocytes; format: ADME, cell-based, Hepatocyte; details: read-out: PB (converted)
[12] = Oral bioavailability in overnight-fasted male Sprague-Dawley rat at 3 mg/kg measured upto 72 hrs by LCMS analysis; format: ADME, organism-based; details: in vivo
[13] = Drug excretion in Sprague-Dawley rat urine at 1 mg/kg, iv; format: ADME, organism-based; details: read-out: Drug excretion
[14] = Permeability across apical to basal side in human Caco-2 cells; format: ADME, cell-based
Cytochrome P450 2B6 [15] = molecular target: T1, Cytochrome P450 2B6 (Homo sapiens, UniProt P20813); assay: Inhibition of CYP2B6 in human liver microsomes; format: ADME, Microsome
T1 sequence (P20813 whole entry): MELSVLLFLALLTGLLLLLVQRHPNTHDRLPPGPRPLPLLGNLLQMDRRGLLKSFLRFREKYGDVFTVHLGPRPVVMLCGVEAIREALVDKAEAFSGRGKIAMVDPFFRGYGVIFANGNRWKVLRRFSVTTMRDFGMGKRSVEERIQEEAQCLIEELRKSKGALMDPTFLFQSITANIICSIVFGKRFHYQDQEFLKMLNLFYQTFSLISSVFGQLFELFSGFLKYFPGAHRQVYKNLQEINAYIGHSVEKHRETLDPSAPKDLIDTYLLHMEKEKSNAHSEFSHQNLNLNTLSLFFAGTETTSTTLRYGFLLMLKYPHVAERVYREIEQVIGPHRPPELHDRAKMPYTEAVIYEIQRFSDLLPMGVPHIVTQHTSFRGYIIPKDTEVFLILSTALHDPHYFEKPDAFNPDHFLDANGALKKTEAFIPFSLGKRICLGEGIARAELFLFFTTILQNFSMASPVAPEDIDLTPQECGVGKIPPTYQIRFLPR

Cytochrome P450 2D6 [16] = molecular target: T2, Cytochrome P450 2D6 (Homo sapiens, UniProt P10635); assay: Inhibition of CYP2D6 in human liver microsomes; format: ADME, Microsome
T2 sequence (P10635 whole entry): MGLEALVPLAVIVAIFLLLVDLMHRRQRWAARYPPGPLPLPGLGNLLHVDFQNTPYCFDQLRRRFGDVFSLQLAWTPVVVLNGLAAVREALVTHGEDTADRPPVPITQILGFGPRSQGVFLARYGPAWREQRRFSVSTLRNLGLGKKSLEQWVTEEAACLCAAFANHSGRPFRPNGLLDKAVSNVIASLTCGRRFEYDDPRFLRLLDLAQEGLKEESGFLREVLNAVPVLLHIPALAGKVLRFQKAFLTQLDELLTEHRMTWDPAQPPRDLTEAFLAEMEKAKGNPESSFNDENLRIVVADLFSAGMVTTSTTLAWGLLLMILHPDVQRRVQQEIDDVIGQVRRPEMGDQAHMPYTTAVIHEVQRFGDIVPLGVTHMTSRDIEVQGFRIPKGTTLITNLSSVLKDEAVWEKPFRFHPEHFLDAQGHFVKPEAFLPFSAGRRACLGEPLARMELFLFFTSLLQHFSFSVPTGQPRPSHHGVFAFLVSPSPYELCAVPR

Cytochrome P450 3A4 = Cytochrome P450 3A4 (Homo sapiens, UniProt P08684); assay: Inhibition of CYP3A4 in human liver microsomes; format: ADME, Microsome
Sequence of Cytochrome P450 3A4 (P08684 whole entry): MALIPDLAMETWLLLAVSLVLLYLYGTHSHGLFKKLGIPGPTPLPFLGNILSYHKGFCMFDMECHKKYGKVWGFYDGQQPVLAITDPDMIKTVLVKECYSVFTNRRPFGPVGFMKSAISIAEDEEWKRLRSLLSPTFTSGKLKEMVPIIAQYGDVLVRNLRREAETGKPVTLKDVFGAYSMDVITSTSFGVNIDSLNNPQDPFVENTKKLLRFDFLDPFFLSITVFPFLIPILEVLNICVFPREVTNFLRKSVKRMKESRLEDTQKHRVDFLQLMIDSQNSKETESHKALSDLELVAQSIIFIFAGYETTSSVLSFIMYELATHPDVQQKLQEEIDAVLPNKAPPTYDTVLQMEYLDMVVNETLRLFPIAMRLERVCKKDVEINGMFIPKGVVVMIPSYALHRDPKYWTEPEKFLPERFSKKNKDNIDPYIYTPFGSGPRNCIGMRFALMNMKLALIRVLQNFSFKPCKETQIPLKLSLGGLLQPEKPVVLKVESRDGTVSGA

Cytochrome P450 2B6 [17] = molecular target: T1, Cytochrome P450 2B6; assay: Time-dependent inhibition of CYP2B6 in human liver microsomes; format: ADME, Microsome
Cytochrome P450 2D6 [18] = molecular target: T2, Cytochrome P450 2D6; assay: Time-dependent inhibition of CYP2D6 in human liver microsomes; format: ADME, Microsome
Cytochrome P450 2C8 = molecular target: T3, Cytochrome P450 2C8 (Homo sapiens, UniProt P10632); assay: Time-dependent inhibition of CYP2C8 in human liver microsomes; format: ADME, Microsome
T3 sequence (P10632 whole entry): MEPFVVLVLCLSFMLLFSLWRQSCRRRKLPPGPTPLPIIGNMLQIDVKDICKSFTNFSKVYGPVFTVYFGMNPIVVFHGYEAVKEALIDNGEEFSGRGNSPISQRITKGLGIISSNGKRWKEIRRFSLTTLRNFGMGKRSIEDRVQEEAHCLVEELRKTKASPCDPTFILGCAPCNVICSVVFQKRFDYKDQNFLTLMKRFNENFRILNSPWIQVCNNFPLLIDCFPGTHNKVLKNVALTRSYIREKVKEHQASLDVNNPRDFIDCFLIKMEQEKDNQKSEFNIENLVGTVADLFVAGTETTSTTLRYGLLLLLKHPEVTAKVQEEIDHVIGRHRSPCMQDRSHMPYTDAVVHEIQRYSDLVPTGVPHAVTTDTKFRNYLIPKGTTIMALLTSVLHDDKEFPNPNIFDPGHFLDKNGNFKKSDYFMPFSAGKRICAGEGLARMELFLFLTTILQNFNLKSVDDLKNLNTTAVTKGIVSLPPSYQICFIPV

Cytochrome P450 2C9 = Cytochrome P450 2C9 (Homo sapiens, UniProt P11712); assay: Time-dependent inhibition of CYP2C9 in human liver microsomes; format: ADME, Microsome
Sequence of Cytochrome P450 2C9 (P11712 whole entry): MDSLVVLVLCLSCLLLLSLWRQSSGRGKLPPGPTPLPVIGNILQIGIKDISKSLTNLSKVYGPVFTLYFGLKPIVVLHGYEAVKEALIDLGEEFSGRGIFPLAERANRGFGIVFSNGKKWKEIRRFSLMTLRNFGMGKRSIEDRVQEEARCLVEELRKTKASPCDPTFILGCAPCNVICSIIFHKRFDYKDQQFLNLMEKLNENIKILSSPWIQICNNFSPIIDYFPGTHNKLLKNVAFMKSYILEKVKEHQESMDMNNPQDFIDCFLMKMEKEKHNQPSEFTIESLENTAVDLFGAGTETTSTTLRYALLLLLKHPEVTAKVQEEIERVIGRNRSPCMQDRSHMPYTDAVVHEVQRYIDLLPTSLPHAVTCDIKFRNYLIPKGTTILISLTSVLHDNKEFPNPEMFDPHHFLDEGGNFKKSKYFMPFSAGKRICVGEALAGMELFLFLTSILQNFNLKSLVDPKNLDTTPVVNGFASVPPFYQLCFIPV

[19] = molecular target: Prostaglandin G/H synthase 1 (Homo sapiens) (UniProt P23219); assay: Inhibition of COX1 (unknown origin) at 10 uM relative to control
Sequence of Prostaglandin G/H synthase 1 (Homo sapiens) (P23219 whole entry): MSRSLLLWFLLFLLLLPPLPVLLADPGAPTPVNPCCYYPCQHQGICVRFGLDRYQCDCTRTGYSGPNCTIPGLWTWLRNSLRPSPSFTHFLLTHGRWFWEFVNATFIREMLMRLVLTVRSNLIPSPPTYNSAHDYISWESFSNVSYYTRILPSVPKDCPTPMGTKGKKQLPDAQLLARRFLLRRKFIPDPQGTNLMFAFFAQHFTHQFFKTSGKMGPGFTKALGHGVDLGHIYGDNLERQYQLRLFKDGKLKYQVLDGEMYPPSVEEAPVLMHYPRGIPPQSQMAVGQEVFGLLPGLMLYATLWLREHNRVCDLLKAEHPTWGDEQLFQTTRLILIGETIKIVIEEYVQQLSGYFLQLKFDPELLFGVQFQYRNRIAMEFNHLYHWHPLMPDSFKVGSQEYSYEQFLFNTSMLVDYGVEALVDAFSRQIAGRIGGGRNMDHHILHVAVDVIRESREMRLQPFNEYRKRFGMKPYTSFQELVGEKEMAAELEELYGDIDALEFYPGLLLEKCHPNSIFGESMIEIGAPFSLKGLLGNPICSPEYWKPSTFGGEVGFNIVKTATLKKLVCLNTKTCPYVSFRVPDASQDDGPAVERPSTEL

[20] = Apparent half life in humanized SCID mouse model at 30 mg/kg, po; format: ADME, organism-based; details: in vivo, read-out: t1/2(app) (converted)
Plasmodium falciparum [21] = assay: Antimalarial activity against erythrocyte asexual stage Plasmodium falciparum 3D7 0087/N9 infected in humanized SCID mouse model assessed as inhibition of maturation of trophozoites to schizonts at first life cycle at 1 to 30 mg/kg administered once daily measured after 48 hrs; format: functional, organism-based; details: dose 1-30 mg/kg
Plasmodium falciparum [22] = assay: Prevention of terminal maturation of schizonts in humanized SCID mouse model infected with erythrocyte asexual stage Plasmodium falciparum 3D7 0087/N9 at 1 to 30 mg/kg administered once daily for 6 days; format: functional, organism-based; details: dose 1-30 mg/kg, time 6.0 day
Plasmodium falciparum [23] = assay: Prevention of re-infection of new erythrocytes in humanized SCID mouse model infected with erythrocyte asexual stage Plasmodium falciparum 3D7 0087/N9 at 1 to 30 mg/kg administered once daily for 6 days; format: functional, organism-based; details: dose 1-30 mg/kg, time 6.0 day
Plasmodium falciparum [24] = assay: Antimalarial activity against erythrocyte asexual stage Plasmodium falciparum 3D7 0087/N9 infected in humanized SCID mouse model assessed as elimination of trophozoites at second life cycle at 1 to 30 mg/kg administered once daily measured for 48 to 96 hrs; format: functional, organism-based; details: dose 1-30 mg/kg, time lower […], time upper […]
Plasmodium falciparum [25] = assay: Prevention of pyknosis of rings in humanized SCID mouse model infected with erythrocyte asexual stage Plasmodium falciparum 3D7 0087/N9 at 1 to 30 mg/kg administered once daily for 6 days measured after 96 to […] post-dose; format: functional, organism-based; details: dose 1-30 mg/kg, time 6.0 day

Cn1nc2c(=O)n(C3CC3)cnc2c1[C@](O)(c1cnc(C(F)(F)F)c(Cl)c1)C(F)(F)F
IC50 [1]: > 30 µM
EC50 (Plasmodium falciparum [2]): 0.001 µM
solubility kinetic at 0.5 h [3]: 80 µM (≈ 37.4 µg/mL)
intrinsic clearance (CLint) [4]: < 3 µL/min/mg
CC50 [5]: > 20 µM
CC50 [6]: > 20 µM
Time (Plasmodium falciparum [7]): ~26 h
log(activity) (Plasmodium falciparum [8]): 2.9
PPB [9]: 98.9%
PPB [10]: 97.2%
fraction unbound (Albumin): 0.514
fraction unbound [11]: 0.535
F [12]: > 89%
dose excreted [13]: < 1%
permeability [14]: Permeable
IC50 (Cytochrome P450 2B6 [15]): > 20 µM
IC50 (Cytochrome P450 2D6 [16]): > 20 µM
IC50 (Cytochrome P450 3A4): > 20 µM
TDI (Cytochrome P450 2B6 [17]): Not_active
TDI (Cytochrome P450 2D6 [18]): Not_active
TDI (Cytochrome P450 2C8): Not_active
TDI (Cytochrome P450 2C9): Not_active
inhibition [19]: 50%
half-life [20]: 7.8 h
Activity (Plasmodium falciparum [21]): Active
Activity (Plasmodium falciparum [22]): inactive
Activity (Plasmodium falciparum [23]): inactive
Activity (Plasmodium falciparum [24]): Active
Activity (Plasmodium falciparum [25]): inactive
